≈ marks a conversion by molar mass, not a printed value. Calls of active or inactive are those of the source. The rule behind the calls is not given here.
Experiments:
Escherichia coli [1] = test: Antibacterial activity against Escherichia coli B 906 assessed as growth inhibition at 0.5% after 24 hr by agar disk diffusion method; format: functional
Escherichia coli [2] = test: Antibacterial activity against Escherichia coli B 906 assessed as growth inhibition at 0.1% after 24 hr by agar disk diffusion method; format: functional
Aspergillus niger [3] = test: Antifungal activity against Aspergillus niger assessed as growth inhibition after 24 to 72 hr by serial dilution method; format: functional
Yamadazyma tenuis [4] = test: Antifungal activity against Candida tenuis assessed as growth inhibition after 24 to 72 hr by serial dilution method; format: functional
Mycobacterium [5] = test: Antibacterial activity against Mycobacterium luteum B-917 assessed as growth inhibition after 24 to 72 hr by serial dilution method; format: functional
Staphylococcus aureus [6] = test: Antibacterial activity against Staphylococcus aureus 209-P assessed as growth inhibition after 24 to 72 hr by serial dilution method; format: functional
Escherichia coli [7] = test: Antibacterial activity against Escherichia coli B 906 assessed as growth inhibition after 24 to 72 hr by serial dilution method; format: functional, organism-based
Aspergillus niger [8] = test: Antifungal activity against Aspergillus niger assessed as growth inhibition at 0.1% after 48 to 72 hr by agar disk diffusion method; format: functional
Aspergillus niger [9] = test: Antifungal activity against Aspergillus niger assessed as growth inhibition at 0.5% after 48 to 72 hr by agar disk diffusion method; format: functional
Yamadazyma tenuis [10] = test: Antifungal activity against Candida tenuis assessed as growth inhibition at 0.1% after 48 to 72 hr by agar disk diffusion method; format: functional
Yamadazyma tenuis [11] = test: Antifungal activity against Candida tenuis assessed as growth inhibition at 0.5% after 48 to 72 hr by agar disk diffusion method; format: functional
Mycobacterium [12] = test: Antibacterial activity against Mycobacterium luteum B-917 assessed as growth inhibition at 0.1% after 24 hr by agar disk diffusion method; format: functional
Mycobacterium [13] = test: Antibacterial activity against Mycobacterium luteum B-917 assessed as growth inhibition at 0.5% after 24 hr by agar disk diffusion method; format: functional
Staphylococcus aureus [14] = test: Antibacterial activity against Staphylococcus aureus 209-P assessed as growth inhibition at 0.1% after 24 hr by agar disk diffusion method; format: functional
Staphylococcus aureus [15] = test: Antibacterial activity against Staphylococcus aureus 209-P assessed as growth inhibition at 0.5% after 24 hr by agar disk diffusion method; format: functional

O=C1C(Cl)=C(Sc2c(Cl)c(Cl)c(Cl)c(Cl)c2Cl)C(=O)c2ccccc21
diameter of the inhibition zone (DIZ) (Escherichia coli [1]): 0 mm | diameter of the inhibition zone (DIZ) (Escherichia coli [2]): 0 mm | MIC (Aspergillus niger [3]): 250 µg/mL (≈ 529 µM) | MIC (Yamadazyma tenuis [4]): 125 µg/mL (≈ 264 µM) | MIC (Mycobacterium [5]): inactive | MIC (Staphylococcus aureus [6]): inactive | MIC (Escherichia coli [7]): inactive | diameter of the inhibition zone (DIZ) (Aspergillus niger [8]): 0 mm | diameter of the inhibition zone (DIZ) (Aspergillus niger [9]): 0 mm | diameter of the inhibition zone (DIZ) (Yamadazyma tenuis [10]): 0 mm | diameter of the inhibition zone (DIZ) (Yamadazyma tenuis [11]): 0 mm | diameter of the inhibition zone (DIZ) (Mycobacterium [12]): 0 mm | diameter of the inhibition zone (DIZ) (Mycobacterium [13]): 0 mm | diameter of the inhibition zone (DIZ) (Staphylococcus aureus [14]): 0 mm | diameter of the inhibition zone (DIZ) (Staphylococcus aureus [15]): 0 mm

CCOC1=C(Sc2ccc(O)cc2)C(=O)c2ccccc2C1=O
diameter of the inhibition zone (DIZ) (Escherichia coli [1]): 0 mm | diameter of the inhibition zone (DIZ) (Escherichia coli [2]): 0 mm | MIC (Aspergillus niger [3]): 15.6 µg/mL (≈ 47.8 µM) | MIC (Yamadazyma tenuis [4]): 31.2 µg/mL (≈ 95.6 µM) | MIC (Mycobacterium [5]): 125 µg/mL (≈ 383 µM) | MIC (Staphylococcus aureus [6]): inactive | MIC (Escherichia coli [7]): inactive | diameter of the inhibition zone (DIZ) (Aspergillus niger [8]): 0 mm | diameter of the inhibition zone (DIZ) (Aspergillus niger [9]): 0 mm | diameter of the inhibition zone (DIZ) (Yamadazyma tenuis [10]): 0 mm | diameter of the inhibition zone (DIZ) (Yamadazyma tenuis [11]): 0 mm | diameter of the inhibition zone (DIZ) (Mycobacterium [12]): 0 mm | diameter of the inhibition zone (DIZ) (Mycobacterium [13]): 0 mm | diameter of the inhibition zone (DIZ) (Staphylococcus aureus [14]): 0 mm | diameter of the inhibition zone (DIZ) (Staphylococcus aureus [15]): 0 mm
